Entries after “also recorded” stand apart in the source; their conditions may differ.
Assays:
[1] = test system: patients with CKD stage 3, 4, or 5 (not on dialysis); assay: Randomized double-blind, placebo-controlled Phase 2a trial, 6 weeks; type: in vivo, human
From the text: Current treatment of anemia associated with chronic kidney disease (CKD) with erythropoiesis-stimulating agents (ESAs) can lead to supraphysiological levels of circulating erythropoietin (EPO) that persist for days, a profile that may be associated with increased cardiovascular side effects and thromboembolic events. […] In a randomized double-blind, placebo-controlled Phase 2a trial, 93 patients with CKD stage 3, 4, or 5 (not on dialysis) received placebo or Compound 1 in the following dose groups: 240, 370, 500, or 630 mg once daily for 6 weeks. […] Erythropoietin was measured at baseline, week 2, end of treatment and follow up.
In a randomized double-blind, placebo-controlled Phase 2a clinical trial, 93 patients with CKD stage 3, 4, or 5 (not on dialysis) received placebo or Compound 1 in the following dose groups: 240, 370, 500, or 630 mg once daily for 6 weeks. […] TIBC and serum iron levels were measured at baseline, week 2, week 4, end of treatment (week 6) and follow up.
In a randomized double-blind, placebo-controlled Phase 2a trial, 93 patients with CKD stage 3, 4, or 5 (not on dialysis) received placebo or Compound 1 in the following dose groups: 240, 370, 500, or 630 mg once daily for 6 weeks.

[2] = test system: healthy male adults; assay: Phase 1a single ascending dose (SAD) study, EPO response; type: in vivo, human
[3] = test system: patients having anemia secondary to CKD; assay: Compound 1 at 500 mg in patients having anemia secondary to CKD: EPO levels and half-life over 24 hours; type: in vivo, human
From the text: Current treatment of anemia associated with chronic kidney disease (CKD) with erythropoiesis-stimulating agents (ESAs) can lead to supraphysiological levels of circulating erythropoietin (EPO) that persist for days, a profile that may be associated with increased cardiovascular side effects and thromboembolic events. […] In a randomized double-blind, placebo-controlled Phase 2a trial, 93 patients with CKD stage 3, 4, or 5 (not on dialysis) received placebo or Compound 1 in the following dose groups: 240, 370, 500, or 630 mg once daily for 6 weeks. […]

[4] = Clinical data obtained to date (summary over studies); type: in vivo, human
From the text: Furthermore, this is achieved with a modest increase in the daily peak level of EPO, but with no increase in basal (pre-dose) levels (in a manner that mimics the physiologic diurnal response in healthy individuals).

[5] = test system: patients with Stage 3 or 4 CKD; assay: Phase 2a dose escalation study, 28 days; type: in vivo, human
Description: In a Phase 2a dose escalation study, 10 CKD patients received Compound 1 once daily for 28 days. Dosing began at 400 mg in CKD Stage 3 patients and 300 mg in CKD Stage 4 patients.

[6] = test system: healthy male adults; assay: Phase 1b multiple ascending dose (MAD) study, EPO response; type: in vivo, human
[7] = test system: healthy adult males; assay: Phase I clinical trials in healthy adult males (overall); type: in vivo, human
From the text: This was a surprising result for a number of reasons. […] Thus, particularly with regard to patients having a disease or condition associated with kidney impairment, a person of skill in the art would not expect that administration of a compound provided herein could cause an increase in a patient's serum hemoglobin levels while also mimicking the diurnal variation of serum EPO levels in healthy individuals and without raising the patients' baseline serum EPO levels.

[8] = test system: EPO production in Hep3B cells; assay: In Vitro EPO Induction Assay (secreted EPO immunoassay); type: cell-based, human
Description: (§1) Materials and Methods: Cell Culture: Human hepatocellular carcinoma (Hep3B) cells were obtained from the American Type Culture Collection (ATCC, Mannassas, VA) and cultured according to ATCC recommendations. Cells were cultured at 37° C. in an atmosphere of 95% air and 5% C02 in a humidified incubator. Compound 13 was diluted to a stock concentration of 50 mM in DMSO (Sigma).
(§2) Cell Treatments: Hep3B cells were plated on 24 well plates. Subsets of Hep3B cultures were transfected with a HIF reporter plasmid (pHRE-luciferase) overnight. (See Sheta, et al., Oncogene. 2001 Nov. 15; 20(52):7624-34.) Cells were exposed to vehicle (1:1000 DMSO) or test Compound 13 at 50 m for 18 hours at 37° C. in an atmosphere of 95% air and 5% CO2 in a humidified incubator.
(§3) Analysis: After 48-hour culture, cell supernatants were subsequently collected, centrifuged at 15,000×g for 15 minutes at 4° C. to sediment debris.
In Vitro EPO Induction Assay: Secreted EPO levels were assayed by specific immunoassay (MesoScale Discovery, Gaithersburg, MD) in accordance with manufacturer's instructions.
(§4) Compound 13 was assayed in duplicate. Fold change over the vehicle control was calculated. Compound 13 was tested at a concentration of 50 m. […] Resulting values for the In Vitro EPO Induction Assay, and In Vitro HIF Prolyl Hydroxylase Inhibition Assay are shown in Table 1 and Table 2.

[9] = test system: HIF prolyl hydroxylase; assay: In Vitro HIF Prolyl Hydroxylase Inhibition Assay (HRE luciferase reporter); type: cell-based, human
Description: as §1, §2, §3
In Vitro HIF Prolyl Hydroxylase Inhibition Assay: Cell lysates were assayed using the dual luciferase reporter-assay (Promega, Madison, WI, USA). Observed firefly luciferase activity was normalized to a co-transfected Renilla luciferase.
as §4

[10] = 240, 370, 500, or 630 mg once daily for 6 weeks, all dose groups, ANOVA p<0.0001

Question: With O=C(O)CNC(=O)c1ncc(-c2cccc(Cl)c2)cc1O [Compound 1, {[5-(3-chlorophenyl)-3-hydroxypyridine-2-carbonyl]amino}acetic acid] as the molecule, how does the “HGB (hemoglobin) at Week 6 compared to baseline and to placebo” value [1, 10] read?
Answer: Its value is “able to increase serum hemoglobin levels; also recorded: significantly increased HGB; also recorded: significantly increased hemoglobin levels”.

Question: And the “TIBC at Week 6 compared to baseline and to placebo” value [1, 10]?
Answer: Its value is “able to increase TIBC levels; also recorded: significantly increased TIBC”.

Question: And the “TIBC dose relation at Week 6” value ([1]; 240-630 mg once daily)?
Answer: The value was “dose-related increase in TIBC; also recorded: dose-related increase in total iron binding capacity”.

Question: And the “Serum iron levels relative to baseline” value ([1]; Week 6)?
Answer: The value was “not associated with an increase in serum iron levels; also recorded: without increasing serum iron levels”.

Question: What about the “TSAT at Week 6” value ([1]; Week 6) of the same molecule?
Answer: Its value is “decrease in TSAT”.

Question: And the “Hepcidin expression at low doses” value ([1]; low doses, such as the 240 mg group, Week 6)?
Answer: The value was “not accompanied by a decrease in hepcidin expression”.

Question: And the “Serum levels of EPO over time” value ([1]; measured at baseline, week 2, end of treatment and follow up)?
Answer: Its value is “did not increase significantly over time”.

Question: And the “Daily EPO levels in CKD patients” value ([1]; mimicking the physiologic diurnal response)?
Answer: Its value is “moderate daily increases in EPO levels”.

Question: And the “Basal (pre-dose) EPO levels” value ([1]; prior to daily dose, 6 weeks)?
Answer: The value was “without increasing basal (pre-dose) EPO levels”.

Question: What about the HGB dose response ([1]; starting from the lowest dose (240 mg)) of the same molecule?
Answer: Its HGB dose response is “clear dose-responsive increase in HGB”.

Question: And the “EPO increase compared to placebo” value ([2]; 600 mg cohort, 8 hours, p=0.034)?
Answer: Its value is “significant increase”.

Question: What about the “EPO rise compared to placebo” value ([2]; 900 and 1200 mg groups, 8, 12, 18, and 24 hours following dosing, p<0.01) of the same molecule?
Answer: The value was “significant, dose-dependent rises”.

Question: What about the “Half-life in patients with anemia secondary to CKD compared to healthy individuals” value ([3]; CKD patients vs healthy adult males) of the same molecule?
Answer: The value was “approximately twice as long; also recorded: significantly longer”.

Question: And the “Time to return to baseline EPO levels” value ([3]; dose of 500 mg, patients having anemia secondary to CKD)?
Answer: Its value is at most 24 h.

Question: What about the Hepcidin and ferritin ([4]; dose responsive changes) of the same molecule?
Answer: The Hepcidin and ferritin was “decreases in hepcidin and ferritin”.

Question: What about the “Total iron binding capacity” value ([4]; dose responsive changes) of the same molecule?
Answer: The value was “increase in total iron binding capacity”.

Question: And the “Baseline EPO” value ([4]; human, in vivo)?
Answer: The value was “without increasing baseline EPO”.

Question: And the “EPO levels (daily)” value ([4]; similar to the physiologic diurnal response)?
Answer: Its value is “modest dose-proportional daily increases in EPO levels”.

Question: What about the “Hemoglobin by Day 29” value ([5]; 10 CKD Stage 3 and 4 patients, once daily 28 days, start 400 mg (Stage 3) or 300 mg (Stage 4), +100 mg steps, baseline 9.91 g/dL) of the same molecule?
Answer: The value was 10.54 g/dL.

Question: What about the “Ferritin by Day 29” value ([5]; 10 CKD Stage 3 and 4 patients, once daily 28 days, baseline 334.10 ng/mL) of the same molecule?
Answer: Its value is 271.70 ng/mL.

Question: What about the Tolerability ([5]; patients with Stage 3 or 4 CKD, 28 days) of the same molecule?
Answer: Its Tolerability is “well-tolerated”.

Question: And the “Peak EPO concentration” value ([6]; multiple ascending dose)?
Answer: The value was “dose responsive increase”.

Question: And the “EPO concentration prior to the next morning dose” value ([6]; regardless of the dosing group)?
Answer: Its value is “essentially returned to baseline”.

Question: And the “Rise in EPO relative to dose” value ([7]; Phase 1 studies)?
Answer: Its value is “proportionate to the dose”.

Question: And the “Serum EPO levels after administration” value ([7]; healthy adult males)?
Answer: The value was “returned to approximately baseline levels within twenty-four hours”.

Question: What about the Serum hemoglobin levels ([7]; healthy adult males) of the same molecule?
Answer: The Serum hemoglobin levels was “able to increase serum hemoglobin levels”.

Question: With NCCNC(=O)c1ncccc1O [Compound 13, N-(2-aminoethyl)-3-hydroxy-pyridine-2-carboxamide] as the molecule, how does the “Mean [EPO]” value ([8]; Compound 13, 18 hours, assayed in duplicate, vehicle 3.0736) read?
Answer: The value was 8.9137 mIU/mL.

Question: And the “Fold Change (EPO, over vehicle control)” value ([8]; Compound 13, inactive if ≤1.0 fold over control)?
Answer: The value was 2.9001.

Question: What about the “EPO production (result in words)” value ([8]; vs DMSO vehicle) of the same molecule?
Answer: Its value is “increase EPO production”.

Question: What about the “Mean HIF PH Inhibition Activity (Relative Luciferase)” value ([9]; Hep3B cells transfected with pHRE-luciferase, Compound 13 at 50 µM, firefly normalized to Renilla, vehicle 1) of the same molecule?
Answer: The value was 3.6.

Question: What about the “HIF prolyl hydroxylase enzyme activity (result in words)” value ([9]; Hep3B cells, 50 µM, vs DMSO vehicle) of the same molecule?
Answer: Its value is “inhibit HIF prolyl hydroxylase enzyme activity”.

Question: And the “Fold Change (HIF PH inhibition activity, over vehicle control)” value ([9]; Hep3B cells, Compound 13 at 50 µM, inactive if ≤1.0 fold over control)?
Answer: Its value is 3.6.
